The source of these data is article PMC5365251, “Biophysical assay for tethered signaling reactions reveals tether-controlled activity for the phosphatase SHP-1” (Science Advances, 2017).

The test system of one data set is PEG12-ITIM peptide. Description: Solution phosphatase assay (inorganic phosphate release). The format is biochemical, mouse. Conditions: PEG12-ITIM 10 μM, pH 7.4, 10°C, BIOMOL Green; fit of progress curves. How it is done:
Purified SHP-1 was mixed with PEG12-ITIM peptide at 10 μM, in 10 mM Hepes (pH 7.4), 150 mM NaCl, 3 mM EDTA, 0.005% Surfactant P20, and 1 mM dithiothreitol (Sigma). Temperature was regulated to 10°C with a thermocycler heat block, and the production of inorganic phosphate was measured at the indicated time points using BIOMOL Green (Enzo Life Sciences).
The resulting progress curves (Fig. 1B) were fit using a standard mathematical model ([20]) based on the following reaction scheme F+S^*⇌koffkonCkcat⇀F+S where F is the phosphatase, S* is the phosphorylated peptide substrate, S is the unphosphorylated peptide product, and C is the intermediate enzyme-substrate complex. This reaction scheme corresponds to the following coupled ODEs ∂F/∂t=−konFS*+(koff+kcat)C∂S*/∂t=−konFS*+koffC∂C/∂t=konFS*−(koff+kcat)C∂S/∂t=kcatC with the following conservation equations for the enzyme and substrate, FT=E+CST=S*+C+S where FT is the initial SHP-1 concentration and ST is the initial concentration of phosphorylated substrate. A common assumption for in vitro solution-based enzyme assays is that the enzyme-substrate complex (C) changes on a […] time scale compared to the time scale of product formation (that is, ∂C/∂t ≈ 0). Using this quasi–steady-state approximation, which is valid when E ≪ S + Km ([46], [47]), we find C = FTS^∗/(Km + S^∗). […] The initial condition is S(t = 0) = 0. […]

Data set [1] deals with PEG28-ITIM. Description: SPR of SHP-1 injected over immobilised PEG28-ITIM: binding constants (MPDPDE fit). Details: species or system mouse. Conditions: tethered SPR assay with active PTP domain. Here is the method: (§1) A construct expressing murine SHP-1 with an N-terminal 6× His tag was provided by M. H. Brown. Mutation of the SH2 domains was performed using a quick-change strategy. The mutations introduced were R30K and R33E for the N-terminal SH2 domain mutant and R136K for the C-terminal SH2 domain mutant previously shown to result in loss of binding ([6]). All peptides were ordered from PeptideSynthetics and were certified to be >95% pure. Peptides sequences were derived from the membrane-proximal ITIM sequence of mouse LAIR-1 receptor.
(§2) Experiments were performed on a Biacore 3000 instrument (GE Healthcare Life Sciences). All experiments were performed at 10°C and with a buffer flow rate of 10 μl/min. The buffer used was Hepes-buffered saline (HBS-EP; GE Healthcare Life Sciences), which contained 10 mM Hepes (pH 7.4), 150 mM NaCl, 3 mM EDTA, and 0.005% Surfactant P20.
(§3) A CM5 sensorchip was coupled with streptavidin to near saturation (typically between 4000 and 7000 RU) using the amine coupling kit (GE Healthcare Life Sciences) as described previously ([42]). After streptavidin was coupled, biotinylated peptides were injected to give the indicated concentrations in experimental flow cells, and excess biotin-binding sites were blocked with biotin in HBS-EP. The molar ratio of peptide to streptavidin was kept below 1:1 to ensure that peptide immobilization was random and not clustered on the tetravalent streptavidin molecules. Reference flow cells were treated with buffer and then blocked with biotin; pilot experiments using unphosphorylated control peptides in reference flow cells were indistinguishable from buffer-treated reference flow cells when injected with SHP-1. The chip surface was then conditioned with 5 × 5-min injections of HBS-EP. SHP-1 protein in HBS-EP with 1 mM dithiothreitol was then injected over reference and experimental flow cells in series for 5 min at the indicated concentrations. All SPR data were converted from the reference-subtracted data (in resonance units) to fraction bound by dividing the resonance units by the theoretical maximum resonance units expected if the experimental flow cell was saturated with bound SHP-1.
To determine the concentration of peptide in the assays, we first needed a conversion factor between the resonance units and the mass of peptide at the chip surface. We determined this conversion factor by injecting four concentrations of SHP-1 over a control flow cell on a CM5 chip and plotting the mass of SHP-1 injected against the raw resonance unit change. We repeated this on seven flow cells across four sensor chips to get an average slope of 149 ± 15 RU per g/liter (±SEM). […]

Data set [2] deals with PEG28-ITIM. Description: SPR of SHP-1 injected over immobilised PEG28-ITIM: tethered/solution catalysis and reach (MPDPDE fit). The data set is classed as biochemical, mouse. How it is done:
as §1, §2, §3
To determine the concentration of peptide in the assays, we first needed a conversion factor between the resonance units and the mass of peptide at the chip surface. We determined this conversion factor by injecting four concentrations of SHP-1 over a control flow cell on a CM5 chip and plotting the mass of SHP-1 injected against the raw resonance unit change. We repeated this on seven flow cells across four sensor chips to get an average slope of 149 ± 15 RU per g/liter (±SEM). This constant, together with the molecular weight of the peptide, was used to convert between the resonance units of peptides immobilized and the molar concentration at the chip surface. For example, 48.5 RU of PEG28-ITIM (molecular weight, 3221) was immobilized to obtain [peptide] = 97.1 μM (Fig. 2A).
From the MPDPDE model–simulated SPR traces, one would predict that the kcat*(solution) (fig. S4, G and H) and L (fig. S4F) are likely to be very sensitive to small systematic errors in the SPR trace at longer time scales. Nonspecific binding and baseline drift are two well-known sources of such systemic errors that can produce artifacts at long time scales (see fig. S6A for examples). To exclude data affected by these artifacts, we propose a simple quality control check that greatly improves the accuracy of estimating L, kcat*(tethered) , and kcat*(solution) . As a measure of the signal-to-noise ratio at long time points, we took the resonance units 20 s after the injection was completed (noise) and divided it by the resonance units 20 s before the injection finished (signal). […] Data that had evidence of significant artifact were excluded from the study based on this criterion (red data points in fig. S6B). […]

Regarding “SHP-1: murine SHP-1 tyrosine phosphatase with an N-terminal 6× His tag, expressed in E. coli”, in the data set on PEG12-ITIM peptide, the “k*cat (= kcat/Km), overall catalytic rate in solution” value turned out to be 6800 M⁻¹ s⁻¹. For the same substance, in the data set with PEG28-ITIM [1], the “bivalent reactions (in words)” value was “no evidence for bivalent reactions”. The “L (reach parameter), SH2 variants” value in the data set on PEG28-ITIM [2] (SHP-1 variants over PEG28-ITIM, average fit Fig. 6B: WT n = 15, N-SH2 mutant n = 3, C-SH2 mutant n = 9) is recorded as 23.0 nm. In addition, the “share of time spent in open active conformation in solution” value in the data set with PEG28-ITIM [2] (assuming complete open transition on SH2 binding, kcat*(solution) = 0.05 kcat*(tethered)) is given as 5%. In addition, the “k*cat (tethered)” value in the data set with PEG28-ITIM [2] (average of all experiments Fig. 4C, n = 15, SEM printed ± 1.3 × 10^-2, wild-type SHP-1, PEG28-ITIM, 10°C, HBS-EP pH 7.4) is 11800 M⁻¹ s⁻¹. Besides, the “L (reach parameter)” value in the data set with PEG28-ITIM [2] (average of all experiments Fig. 4C, n = 15, SEM ± 0.46, wild-type SHP-1, PEG28-ITIM, 10°C, HBS-EP pH 7.4) was 23 nm. Also, in the data set with PEG28-ITIM [2] (average of all experiments Fig. 4C, n = 15, SEM ± 1.15 × 10^-4, wild-type SHP-1, PEG28-ITIM, 10°C, HBS-EP pH 7.4), the “k*cat (solution)” value came to 603 M⁻¹ s⁻¹. In addition, the “increase in tethered over solution catalytic rate (allosteric activation)” value in the data set with PEG28-ITIM [2] (wild-type SHP-1, PEG28-ITIM, kcat*(tethered) versus kcat*(solution)) stood at 20 fold.
